Patent US9290740B2, “Use of basic fibroblast growth factor in the de-differentiation of animal connective tissue cells” (Worcester Polytechnic Institute, priority 2008, dated 2016)
Several values for one entry are separate records, joined by “and”; a condition that tells them apart may be missing. Equal entries are not always repeated.

Test system: adult human dermal fibroblasts (CRL-2352)
Assay: Effect of FGF2 and oxygen level on proliferation and in vitro lifespan (population doublings to senescence)
Assay type: cell-based
Method: Adult human fibroblasts (cell line CRL-2352) derived from connective tissue isolated from tissue derived from a below knee amputation of a person were received from American type Tissue Culture Collection (ATCC) (Manassas, Va.) as cryopreserved vials and were stored in liquid nitrogen until use. Cells were thawed at 37 C and added dropwise to 10 ml of basal culture medium (CM-1A, 45% DMEM without L-gln or phenol red (MediaTech, Manassas, Va.) with 4 mM L-Gln (MediaTech), 45% Hams F12 Medium (MediaTech), and 10% Fetalclone III (Hyclone, Logan, Utah)). The cell suspension was centrifuged at 700×g for 5 min, the medium aspirated and the pellet resuspended in fresh CM1A culture medium. Cells were seeded at a density of 0.5×106 in 10 ml of medium in T75 tissue culture flasks (BD Falcon). Cultures were carried out in a 37 C incubator in a humidified environment of 5% CO2, 5% O2, 90% N2. Cells were passaged at routine intervals at approximately 70-90% confluence using Trypsin-EDTA solution (MediaTech) diluted 1:5 in DPBS without Ca2+/Mg2+ (MediaTech). At each passage, cells were counted using a Levy Counting chamber (Hausser Scientific) and the number of population doublings calculated as log 2. For comparative studies, human recombinant FGF2 (either Invitrogen or Chemicon) was supplemented into CM1A at 4 ng/ml (medium designated CM2A) from a 100 μg/ml stock solution in DPBS (MediaTech).
Cells were passaged continuously at either 3 or 4 day intervals without interruption until in vitro senescence was reached. Two replicate T25 vessels of cells for each treatment (with or without FGF2) were seeded at each passage with 100,000 cells per vessel. The average number of population doublings (PDs) was calculated at each passage and cumulative PDs plotted versus time (days) in culture (FIG. 1).
Cells were thawed and seeded at equal density into T25 cell culture flasks (BD Falcon) and cultured at 37° C., 5% CO2, balance air (high O2); and 37° C., 5% CO2, 5% O2, 90% N2 (low O2). For each oxygen tension level, cells were also cultured with and without FGF2 (4 ng/ml). Cells were passaged at 3 or 4 day intervals, counted and 100,000 cells re-seeded at each passage. The number of population doublings at each passage was determined and cumulative population doublings compared between low and high O2 treatment groups. In addition, at day 28 of culture, FGF2 was removed from a population of cells and the culture continued to monitor the long term effect of previous culture with FGF2.
Primary adult human dermal fibroblasts from connective tissue isolated from tissue biopsy from a below knee amputation of a person were received from ATCC(CRL-2352) at passage 2. Cells were cultured in medium consisting of DMEM:Ham's F12 ([…], MediaTech) with 10% Fetalclone III (Hyclone, Logan, Utah). The DMEM (without L-Gln or phenol red) was supplemented with 4 mM fresh L-Gln (MediaTech) prior to use. Cultures were carried out in a 37° C. incubator in a humidified environment of 5% CO2, 5% O2, and 90% N2. The number of population doublings calculated as log2. Cells were seeded at 100,000 cells per T25 flask at each passage (Falcon). […] Human muscle derived fibroblasts were derived from surplus muscle tissue from the calf flexor muscle used for a surgical knee repair in an adult. Tissue was rinsed in Leibowitz L-15 medium (MediaTech) containing 10 μg/ml gentamicin (Invitrogen) and 2.5 μg/ml fungizone (Hyclone) and minced using a sterile scalpel and digested with 1800 units/ml collagenase Type IV for 1 hour at 37° C. Cell lines were established by culture at 5% O2 from the beginning and working stocks cryopreserved at passage 2.

## FGF2: human recombinant FGF2 (Invitrogen, Chemicon or Protide), basic fibroblast growth factor
FGF2 4 ng/ml, 5% O2
  population doublings at senescence, low O2 with FGF2: 65 PDs and 70 PDs
  proliferation rate versus cells without FGF2: proliferated more rapidly
FGF2 4 ng/ml, 5% O2, until replicative senescence
  additional population doublings achieved by addition of FGF2 (on average): 19 population doublings
FGF2 4 ng/ml, atmospheric oxygen
  population doublings at senescence, atmospheric oxygen with FGF2: 49 PDs and 50 PDs
FGF2, 5% O2
  cell morphology: smaller cells with a more spindle shape
FGF2/low oxygen-treated fibroblasts
  karyotype: maintained normal karyotype
FGF2 and low oxygen conditions
  increase in longevity / cell passage over primary cells cultured without these conditions: two fold increase
FGF2 and low oxygen conditions, primary cells typically about 20 to 30
  number of passages observed: 70 times
